Reference: the NIST ThermoML archive (doi:10.1016/j.jct.2015.08.014)
± gives the expanded uncertainty stated by the source.

Experiment: xn = mol fraction of the nth substance listed
Details: 100 kPa, Liquid; for electrical conductivity: Alternating current cell with electrodes; for mass density: Vibrating tube method; for viscosity: Capillary tube (Ostwald / Ubbelohde) method

## CCCC[N+]1(C)CCCC1.N#CN=C=[N-] [1-butyl-1-methylpyrrolidinium dicyanamide] + O=C1CCCO1
283.15 K, Frequency=0.008 MHz, x1 = 0.0463
  electrical conductivity: 1.17 ± 0.02 S/m
283.15 K, Frequency=0.008 MHz, x1 = 0.0987
  electrical conductivity: 1.73 ± 0.021 S/m
283.15 K, Frequency=0.008 MHz, x1 = 0.1449
  electrical conductivity: 1.93 ± 0.02 S/m
283.15 K, Frequency=0.008 MHz, x1 = 0.1859
  electrical conductivity: 2.028 ± 0.02 S/m
283.15 K, Frequency=0.008 MHz, x1 = 0.2493
  electrical conductivity: 1.926 ± 0.019 S/m
283.15 K, Frequency=0.008 MHz, x1 = 0.3029
  electrical conductivity: 1.84 ± 0.019 S/m
283.15 K, Frequency=0.008 MHz, x1 = 0.3845
  electrical conductivity: 1.66 ± 0.017 S/m
283.15 K, Frequency=0.008 MHz, x1 = 0.4985
  electrical conductivity: 1.407 ± 0.014 S/m
283.15 K, Frequency=0.008 MHz, x1 = 0.6954
  electrical conductivity: 1.07 ± 0.01 S/m
283.15 K, Frequency=0.008 MHz, x1 = 0.9013
  electrical conductivity: 0.849 ± 0.009 S/m
283.15 K, Frequency=0.008 MHz, x1 = 1
  electrical conductivity: 0.786 ± 0.008 S/m
283.15 K, Frequency=0.00857143 MHz, x1 = 0.0463
  electrical conductivity: 1.17 ± 0.02 S/m
283.15 K, Frequency=0.00857143 MHz, x1 = 0.0987
  electrical conductivity: 1.73 ± 0.021 S/m
283.15 K, Frequency=0.00857143 MHz, x1 = 0.1449
  electrical conductivity: 1.93 ± 0.02 S/m
283.15 K, Frequency=0.00857143 MHz, x1 = 0.1859
  electrical conductivity: 2.028 ± 0.02 S/m
283.15 K, Frequency=0.00857143 MHz, x1 = 0.2493
  electrical conductivity: 1.926 ± 0.019 S/m
283.15 K, Frequency=0.00857143 MHz, x1 = 0.3029
  electrical conductivity: 1.84 ± 0.019 S/m
283.15 K, Frequency=0.00857143 MHz, x1 = 0.3845
  electrical conductivity: 1.66 ± 0.017 S/m
283.15 K, Frequency=0.00857143 MHz, x1 = 0.4985
  electrical conductivity: 1.407 ± 0.014 S/m
283.15 K, Frequency=0.00857143 MHz, x1 = 0.6954
  electrical conductivity: 1.07 ± 0.01 S/m
283.15 K, Frequency=0.00857143 MHz, x1 = 0.9013
  electrical conductivity: 0.849 ± 0.009 S/m
283.15 K, Frequency=0.00857143 MHz, x1 = 1
  electrical conductivity: 0.786 ± 0.008 S/m
283.15 K, Frequency=0.00892857 MHz, x1 = 0.0463
  electrical conductivity: 1.17 ± 0.02 S/m
283.15 K, Frequency=0.00892857 MHz, x1 = 0.0987
  electrical conductivity: 1.73 ± 0.021 S/m
283.15 K, Frequency=0.00892857 MHz, x1 = 0.1449
  electrical conductivity: 1.93 ± 0.02 S/m
283.15 K, Frequency=0.00892857 MHz, x1 = 0.1859
  electrical conductivity: 2.028 ± 0.02 S/m
283.15 K, Frequency=0.00892857 MHz, x1 = 0.2493
  electrical conductivity: 1.926 ± 0.019 S/m
283.15 K, Frequency=0.00892857 MHz, x1 = 0.3029
  electrical conductivity: 1.84 ± 0.019 S/m
283.15 K, Frequency=0.00892857 MHz, x1 = 0.3845
  electrical conductivity: 1.66 ± 0.017 S/m
283.15 K, Frequency=0.00892857 MHz, x1 = 0.4985
  electrical conductivity: 1.407 ± 0.014 S/m
283.15 K, Frequency=0.00892857 MHz, x1 = 0.6954
  electrical conductivity: 1.07 ± 0.01 S/m
283.15 K, Frequency=0.00892857 MHz, x1 = 0.9013
  electrical conductivity: 0.849 ± 0.009 S/m
283.15 K, Frequency=0.00892857 MHz, x1 = 1
  electrical conductivity: 0.786 ± 0.008 S/m
283.15 K, Frequency=0.00961538 MHz, x1 = 0.0463
  electrical conductivity: 1.17 ± 0.02 S/m
283.15 K, Frequency=0.00961538 MHz, x1 = 0.0987
  electrical conductivity: 1.73 ± 0.021 S/m
283.15 K, Frequency=0.00961538 MHz, x1 = 0.1449
  electrical conductivity: 1.93 ± 0.02 S/m
283.15 K, Frequency=0.00961538 MHz, x1 = 0.1859
  electrical conductivity: 2.028 ± 0.02 S/m
283.15 K, Frequency=0.00961538 MHz, x1 = 0.2493
  electrical conductivity: 1.927 ± 0.019 S/m
283.15 K, Frequency=0.00961538 MHz, x1 = 0.3029
  electrical conductivity: 1.84 ± 0.019 S/m
283.15 K, Frequency=0.00961538 MHz, x1 = 0.3845
  electrical conductivity: 1.66 ± 0.017 S/m
283.15 K, Frequency=0.00961538 MHz, x1 = 0.4985
  electrical conductivity: 1.407 ± 0.014 S/m
283.15 K, Frequency=0.00961538 MHz, x1 = 0.6954
  electrical conductivity: 1.07 ± 0.01 S/m
283.15 K, Frequency=0.00961538 MHz, x1 = 0.9013
  electrical conductivity: 0.849 ± 0.009 S/m
283.15 K, Frequency=0.00961538 MHz, x1 = 1
  electrical conductivity: 0.786 ± 0.008 S/m
283.15 K, Frequency=0.01 MHz, x1 = 0.0463
  electrical conductivity: 1.17 ± 0.02 S/m
283.15 K, Frequency=0.01 MHz, x1 = 0.0987
  electrical conductivity: 1.73 ± 0.021 S/m
283.15 K, Frequency=0.01 MHz, x1 = 0.1449
  electrical conductivity: 1.93 ± 0.02 S/m
283.15 K, Frequency=0.01 MHz, x1 = 0.1859
  electrical conductivity: 2.028 ± 0.02 S/m
283.15 K, Frequency=0.01 MHz, x1 = 0.2493
  electrical conductivity: 1.927 ± 0.019 S/m
283.15 K, Frequency=0.01 MHz, x1 = 0.3029
  electrical conductivity: 1.84 ± 0.019 S/m
283.15 K, Frequency=0.01 MHz, x1 = 0.3845
  electrical conductivity: 1.66 ± 0.017 S/m
283.15 K, Frequency=0.01 MHz, x1 = 0.4985
  electrical conductivity: 1.407 ± 0.014 S/m
283.15 K, Frequency=0.01 MHz, x1 = 0.6954
  electrical conductivity: 1.07 ± 0.01 S/m
283.15 K, Frequency=0.01 MHz, x1 = 0.9013
  electrical conductivity: 0.849 ± 0.009 S/m
283.15 K, Frequency=0.01 MHz, x1 = 1
  electrical conductivity: 0.786 ± 0.008 S/m
283.15 K, x1 = 0.0987
  mass density: 1116.14 ± 8.9 kg/m3
283.15 K, x1 = 0.1859
  mass density: 1099.19 ± 8.8 kg/m3
283.15 K, x1 = 0.3029
  mass density: 1080.61 ± 8.7 kg/m3
283.15 K, x1 = 0.4985
  mass density: 1057.34 ± 8.5 kg/m3
283.15 K, x1 = 0.6954
  mass density: 1040.35 ± 8.3 kg/m3
283.15 K, x1 = 0.9013
  mass density: 1027.12 ± 8.3 kg/m3
283.15 K, x1 = 1
  mass density: 1021.96 ± 8.2 kg/m3
293.15 K, x1 = 0.0463
  electrical conductivity: 1.37 ± 0.024 S/m
293.15 K, x1 = 0.0987
  electrical conductivity: 2.05 ± 0.025 S/m
  viscosity: 3.07 ± 0.07 mPa·s
293.15 K, x1 = 0.1449
  electrical conductivity: 2.31 ± 0.024 S/m
293.15 K, x1 = 0.1859
  electrical conductivity: 2.45 ± 0.025 S/m
  viscosity: 4.46 ± 0.1 mPa·s
293.15 K, x1 = 0.2493
  electrical conductivity: 2.37 ± 0.024 S/m
293.15 K, x1 = 0.3029
  electrical conductivity: 2.29 ± 0.023 S/m
  viscosity: 6.96 ± 0.16 mPa·s
293.15 K, x1 = 0.3845
  electrical conductivity: 2.116 ± 0.021 S/m
293.15 K, x1 = 0.4985
  electrical conductivity: 1.84 ± 0.019 S/m
  viscosity: 13.06 ± 0.29 mPa·s
293.15 K, x1 = 0.6954
  electrical conductivity: 1.46 ± 0.015 S/m
  viscosity: 21.74 ± 0.49 mPa·s
293.15 K, x1 = 0.9013
  electrical conductivity: 1.19 ± 0.012 S/m
  viscosity: 33.58 ± 0.76 mPa·s
293.15 K, x1 = 1
  electrical conductivity: 1.123 ± 0.011 S/m
  viscosity: 40.25 ± 0.91 mPa·s
293.15 K, Frequency=0.0005 MHz, x1 = 0.0463
  electrical conductivity: 1.36 ± 0.024 S/m
293.15 K, Frequency=0.0005 MHz, x1 = 0.0987
  electrical conductivity: 2.03 ± 0.025 S/m
293.15 K, Frequency=0.0005 MHz, x1 = 0.1449
  electrical conductivity: 2.31 ± 0.024 S/m
293.15 K, Frequency=0.0005 MHz, x1 = 0.1859
  electrical conductivity: 2.426 ± 0.024 S/m
293.15 K, Frequency=0.0005 MHz, x1 = 0.2493
  electrical conductivity: 2.37 ± 0.024 S/m
293.15 K, Frequency=0.0005 MHz, x1 = 0.3029
  electrical conductivity: 2.28 ± 0.023 S/m
293.15 K, Frequency=0.0005 MHz, x1 = 0.3845
  electrical conductivity: 2.108 ± 0.021 S/m
293.15 K, Frequency=0.0005 MHz, x1 = 0.4985
  electrical conductivity: 1.84 ± 0.019 S/m
293.15 K, Frequency=0.0005 MHz, x1 = 0.6954
  electrical conductivity: 1.45 ± 0.015 S/m
293.15 K, Frequency=0.0005 MHz, x1 = 0.9013
  electrical conductivity: 1.19 ± 0.012 S/m
293.15 K, Frequency=0.0005 MHz, x1 = 1
  electrical conductivity: 1.122 ± 0.011 S/m
293.15 K, Frequency=0.001 MHz, x1 = 0.0463
  electrical conductivity: 1.36 ± 0.024 S/m
293.15 K, Frequency=0.001 MHz, x1 = 0.0987
  electrical conductivity: 2.04 ± 0.025 S/m
293.15 K, Frequency=0.001 MHz, x1 = 0.1449
  electrical conductivity: 2.31 ± 0.024 S/m
293.15 K, Frequency=0.001 MHz, x1 = 0.1859
  electrical conductivity: 2.435 ± 0.024 S/m
293.15 K, Frequency=0.001 MHz, x1 = 0.2493
  electrical conductivity: 2.37 ± 0.024 S/m
293.15 K, Frequency=0.001 MHz, x1 = 0.3029
  electrical conductivity: 2.29 ± 0.023 S/m
293.15 K, Frequency=0.001 MHz, x1 = 0.3845
  electrical conductivity: 2.111 ± 0.021 S/m
293.15 K, Frequency=0.001 MHz, x1 = 0.4985
  electrical conductivity: 1.84 ± 0.019 S/m
293.15 K, Frequency=0.001 MHz, x1 = 0.6954
  electrical conductivity: 1.46 ± 0.015 S/m
293.15 K, Frequency=0.001 MHz, x1 = 0.9013
  electrical conductivity: 1.19 ± 0.012 S/m
293.15 K, Frequency=0.001 MHz, x1 = 1
  electrical conductivity: 1.122 ± 0.011 S/m
293.15 K, Frequency=0.0015 MHz, x1 = 0.0463
  electrical conductivity: 1.37 ± 0.024 S/m
293.15 K, Frequency=0.0015 MHz, x1 = 0.0987
  electrical conductivity: 2.04 ± 0.025 S/m
293.15 K, Frequency=0.0015 MHz, x1 = 0.1449
  electrical conductivity: 2.31 ± 0.024 S/m
293.15 K, Frequency=0.0015 MHz, x1 = 0.1859
  electrical conductivity: 2.44 ± 0.024 S/m
293.15 K, Frequency=0.0015 MHz, x1 = 0.2493
  electrical conductivity: 2.37 ± 0.024 S/m
